Measured values published in publication PMC12621019, “Restructuring Antiviral Quinazolinone Frameworks to Derive and Optimize Inhibitors of Chikungunya Virus” (ACS Medicinal Chemistry Letters, 2025).
pEC50: −log10 of the molar value. In brackets after ≈: the same amount, converted by molar mass.

Columns and labels:
[1] = system: CHIKV (strain 181/25mKate); assay: microbe, parasite or virus in culture; format: cell-based; conditions: Chikungunya virus, NHDF; for log reduction at 10 µM: 72 h, read-out: titer redn, log
[2] = Cytotoxicity assay (CellTiter Glo) in NHDF cells; conditions: human, CC50, NHDF cells, maximum 40 μM
NHDF cells = assay: Cytotoxicity assay (CellTiter Glo) in NHDF cells; conditions: NHDF cells, 72 h, maximum 40 μM
Mouse plasma stability = conditions: male, CD-1, mouse
[3] = Plasma protein binding (equilibrium dialysis); conditions: male, CD-1, mouse
[4] = Liver microsomal stability; conditions: CD-1, mouse, microsomes
[5] = Cytotoxicity in Vero E6 cells (live cell count, high-content imaging); conditions: African green monkey
[6] = Kinetic solubility determination; conditions: for solubility kinetic at 24 h: pH 7.4, aqueous buffer, kinetic from dmso stock
physchem = conditions: pH 7.4

Question: Which results are given for `COc1c(F)cc(-n2c(C3CCCCN3)nc3cc(N4CCN(C(C)C)CC4)c(Cl)cc3c2=O)cc1F` (racemic) [rac-1h]?
Answer: log reduction at 10 µM [1]: 1.3; CC50 at 72 h [2]: > 40 µM; CC50 (NHDF cells; listed as racemic 1h): without observed cytotoxicity

Question: What does the source list for `COc1c(F)cc(-n2c([C@H]3CCCCN3)nc3cc(N4CCN(C(C)C)CC4)c(Cl)cc3c2=O)cc1F` [(R)-1h]?
Answer: log reduction at 10 µM [1]: 4.1; pEC50 ([1]; read-out: EC50 (titer reduction assay, dose response)): 6.07; CC50 at 72 h [2]: ~19 µM; CC50 (NHDF cells): 18.6 µM; half-life (Mouse plasma stability): > 4 h; fraction unbound at 4 h, 2 μM [3]: 0.232; half-life [4]: > 2.42 h; CC50 at 20 h [5]: > 20 µM; boost in aqueous solubility compared to rac-1x ([6]; PBS buffer, pH 7.4): 5 fold; solubility kinetic at 24 h [6]: 183 µM (≈ 97.4 µg/mL)

Question: For `CC(C)N1CCN(c2cc3nc(C4CCCCN4)n(-c4ccc(Cl)cc4)c(=O)c3cc2Cl)CC1` (racemic) [rac-1x], which log reduction at 10 µM [1] is on record?
Answer: ~4

Question: What about the CC50 at 72 h [2] of the same molecule?
Answer: 20.9 µM

Question: And the half-life (Mouse plasma stability)?
Answer: > 4.82 h

Question: And the fraction unbound at 4 h, 2 μM [3]?
Answer: 0.033

Question: What about the logD (physchem) of the same molecule?
Answer: 2.3

Question: And the half-life [4]?
Answer: > 2.42 h

Question: And the solubility kinetic at 24 h [6]?
Answer: 34.6 µM (≈ 17.3 µg/mL)

Question: With `COc1c(F)cc(-n2c([C@H]3CCCNC3)nc3cc(N4CCC(N5CCOCC5)CC4)c(Cl)cc3c2=O)cc1F` [(S)-1o] as the molecule, how does the log reduction at 10 µM [1] read?
Answer: 0.3

Question: And the CC50 at 72 h [2]?
Answer: 30.1 µM

Question: Which log reduction at 10 µM [1] does the source give for `COc1c(F)cc(-n2c(-c3cccnc3)nc3cc(N4CCN(C(C)C)CC4)c(Cl)cc3c2=O)cc1F` [1ad] here?
Answer: 0

Question: What about the CC50 at 72 h [2] of the same molecule?
Answer: > 40 µM

Question: For `COc1c(F)cc(-n2c([C@@H]3CCCCN3)nc3cc(N4CCN(C(C)C)CC4)c(Cl)cc3c2=O)cc1F` [(S)-1h], which log reduction at 10 µM [1] is on record?
Answer: 1.7

Question: And the CC50 at 72 h [2]?
Answer: 34.8 µM

Question: For `COc1c(F)cc(-n2c([C@@H]3CCCN3)nc3cc(N4CCN(C(C)C)CC4)c(F)cc3c2=O)cc1F` [(S)-1b], which log reduction at 10 µM [1] is on record?
Answer: 0.64

Question: What about the CC50 at 72 h [2] of the same molecule?
Answer: > 40 µM

Question: With `COc1c(F)cc(-n2c([C@H]3CCCCN3C)nc3cc(N4CCN(C(C)C)CC4)c(Cl)cc3c2=O)cc1F` [(R)-1z] as the molecule, how does the log reduction at 10 µM [1] read?
Answer: 0.4

Question: And the CC50 at 72 h [2]?
Answer: > 40 µM

Question: Which log reduction at 10 µM [1] does the source give for `COc1c(F)cc(-n2c([C@@H]3CCCN3)nc3cc(N4CCN(C)CC4)c(Cl)cc3c2=O)cc1F` [(S)-1c] here?
Answer: 1

Question: What about the CC50 at 72 h [2] of the same molecule?
Answer: > 40 µM

Question: For `CC(C)N1CCN(c2cc3nc([C@@H]4CCCNC4)n(C)c(=O)c3cc2Cl)CC1` [(R)-1r], which log reduction at 10 µM [1] is on record?
Answer: 0.5

Question: What about the CC50 at 72 h [2] of the same molecule?
Answer: > 40 µM

Question: For `COc1c(F)cc(-n2c([C@@H]3CCCN3)nc3cc(N4CCN(C)CC4)c(F)cc3c2=O)cc1F` [(S)-1a], which log reduction at 10 µM [1] is on record?
Answer: 0.3

Question: And the CC50 at 72 h [2]?
Answer: > 40 µM

Question: Which results are given for `COc1c(F)cc(-n2c([C@H]3CCCN3)nc3cc(N4CCN(C)CC4)c(Cl)cc3c2=O)cc1F` [(R)-1c]?
Answer: log reduction at 10 µM [1]: 0.5; CC50 at 72 h [2]: > 40 µM

Question: What does the source list for `COc1c(F)cc(-n2c([C@@H]3CCCNC3)nc3ccc(Cl)cc3c2=O)cc1F` [(R)-1ab]?
Answer: log reduction at 10 µM [1]: 0; CC50 at 72 h [2]: > 40 µM
